Earlier results as cited in patent US12374423B2, “Systems and methods for MHC class II epitope prediction” (priority 2017, dated 2025).

System: ovarian carcinoma patients
Conditions: poly-ICLC in combination with a NY-ESO-1 peptide vaccine (in addition to Montanide), phase 1; cited from earlier work

Polyinosinic-Polycytidylic Acid-poly-L-lysine Carboxymethylcellulose [poly-ICLC]
patients showing induction of CD4+ and CD8+ T cell, as well as antibody responses to the peptide: > 90%
